For 21 compounds, IC50 and fold induction results are on record in patent US20250296939A1, “BENZOTHIOPHENE COMPOUND” (Kyoto Pharmaceutical Industries, Ltd., priority 2022, published 2025).

The target of experiment [1] is GST-fused human Keap1 (amino acid residues: 325-642) protein (Homo sapiens (Human), UniProt Q14145). The experiment is described as follows: FP assay (in vitro): inhibition of binding between Nrf2 and Keap1 by fluorescence polarization. The conditions noted are these: 20 nM GST-fused human Keap1, 10 nM FITC-labeled Nrf2 peptide, 2 hr at room temperature.
Sequence of GST-fused human Keap1 (amino acid residues: 325-642) protein (Q14145 325-624 limits assumed): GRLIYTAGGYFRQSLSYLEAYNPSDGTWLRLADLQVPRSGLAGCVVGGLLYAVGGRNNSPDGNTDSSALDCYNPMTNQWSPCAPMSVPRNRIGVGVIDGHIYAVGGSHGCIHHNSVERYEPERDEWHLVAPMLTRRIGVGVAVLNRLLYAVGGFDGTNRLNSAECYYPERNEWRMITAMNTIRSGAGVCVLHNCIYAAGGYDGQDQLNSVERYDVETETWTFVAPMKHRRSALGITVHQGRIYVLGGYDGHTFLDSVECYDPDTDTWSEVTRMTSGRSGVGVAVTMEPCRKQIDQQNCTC
Experiment [2] relates to NQO1 activity in Hepa1c1c7 cells. In words: NAD(P)H: quinone oxidoreductase-1 (NQO1) enzyme induction assay (in vitro). It is filed as cell-based, mouse. The conditions noted are these: Mus musculus, Hepa-1c1c7, NQO1 activity upon addition of 400 nM of test compound, about 48 hr, ratio from the base without the compound. A digest of the protocol:
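Mouse Hepa1c1c7 hepatoma cells were treated with 400 nM compound for about 48 h, then lysed with digitonin/EDTA. NQO1 activity was measured as menadione-mediated MTT reduction with a G6P/G6PDH NADPH-regenerating system, stopped with dicoumarol, and read at A610. Values are the activity ratio versus untreated base wells.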

`CC[C@@H]1Cc2cccnc2CN(Cc2cc(C(CC(=O)O)c3ccc4c(nnn4C)c3C)cc3ccsc23)C1` (stereo partly drawn) [Example 63, 3-(1,4-Dimethyl-1H-benzotriazol-5-yl)-3-(7-{[(6R)-6-ethyl-5,6,7,9-tetrahydro-8H-pyrido[2,3-c]azepin-8-yl]methyl}-1-benzothiophen-5-yl)propanoic acid]: the half-maximal inhibitory concentration (IC50) (commonly the midpoint of a concentration-inhibition curve) in experiment [1] lay in the range of 30 to 300 nM. For the same compound, in experiment [2], the fold induction (usually the ratio of treated to control signal) at 0.4 µM fell in the range of 3 to 5.

As to `CC[C@H]1Cc2cccnc2CN(Cc2cc(C(CC(=O)O)c3ccc4c(nnn4C)c3C)cc3ccsc23)C1` (stereo partly drawn) [Example 64, 3-(1,4-Dimethyl-1H-benzotriazol-5-yl)-3-(7-{[(6S)-6-ethyl-5,6,7,9-tetrahydro-8H-pyrido[2,3-c]azepin-8-yl]methyl}-1-benzothiophen-5-yl)propanoic acid], the half-maximal inhibitory concentration (IC50) in experiment [1] was in the range of 30 to 300 nM. Also, the fold induction at 0.4 µM in experiment [2] was more than 5.

`CC[C@@H]1CN(Cc2cc([C@@H](CC(=O)O)c3cnc4c(nnn4C)c3C)cc3ccsc23)Cc2nc(N)ccc2O1` [Example 67, (3R)-3-(7-{[(2R)-7-Amino-2-ethyl-2,3-dihydropyrido[2,3-f][1,4]oxazepin-4(5H)-yl]methyl}-1-benzothiophen-5-yl)-3-(3,7-dimethyl-3H-[1,2,3]triazolo[4,5-b]pyridin-6-yl)propanoic acid] yielded an IC50 in experiment [1] of 10 to 30 nM. The fold induction at 0.4 µM in experiment [2] was more than 5.

`CC[C@@H]1CN(Cc2cc([C@H](CC(=O)O)c3cnc4c(nnn4C)c3C)cc3ccsc23)Cc2nc(N)ccc2O1` [Example 68, (3S)-3-(7-{[(2R)-7-Amino-2-ethyl-2,3-dihydropyrido[2,3-f][1,4]oxazepin-4(5H)-yl]methyl}-1-benzothiophen-5-yl)-3-(3,7-dimethyl-3H-[1,2,3]triazolo[4,5-b]pyridin-6-yl)propanoic acid] had a half-maximal inhibitory concentration (IC50) in experiment [1] of 10 to 30 nM. Further, in experiment [2], the fold induction at 0.4 µM is more than 5.

In experiment [1], `CC[C@H]1Cc2cccnc2CN(Cc2cc([C@@H](CC(=O)O)c3ccc4c(nnn4C)c3C)cc3ccsc23)C1` [Example 69, (3R)-3-(1,4-Dimethyl-1H-benzotriazol-5-yl)-3-(7-{[(6S)-6-ethyl-5,6,7,9-tetrahydro-8H-pyrido[2,3-c]azepin-8-yl]methyl}-1-benzothiophen-5-yl)propanoic acid] gave an IC50 of 10 to 30 nM. The fold induction at 0.4 µM in experiment [2] is more than 5.

In the case of `CC[C@H]1Cc2cccnc2CN(Cc2cc([C@H](CC(=O)O)c3ccc4c(nnn4C)c3C)cc3ccsc23)C1` [Example 70, (3S)-3-(1,4-Dimethyl-1H-benzotriazol-5-yl)-3-(7-{[(6S)-6-ethyl-5,6,7,9-tetrahydro-8H-pyrido[2,3-c]azepin-8-yl]methyl}-1-benzothiophen-5-yl)propanoic acid], in experiment [1], the 50% inhibitory concentration (IC50) was not above 10 nM. Further, the fold induction at 0.4 µM in experiment [2] was more than 5.

With `Cc1c(C(CC(=O)O)c2cc(CN3Cc4nc(N)ccc4OC4(CC4)C3)c3sccc3c2)cnc2c1nnn2C` (stereo not drawn) [Example 71, 3-{7-[(7′-Amino-3′H-spiro[cyclopropane-1,2′-pyrido[2,3-f][1,4]oxazepin]-4′ (5′H)-yl)methyl]-1-benzothiophen-5-yl}-3-(3,7-dimethyl-3H-[1,2,3]triazolo[4,5-b]pyridin-6-yl)propanoic acid], the IC50 in experiment [1] is 10 to 30 nM. In addition, the fold induction at 0.4 µM in experiment [2] is more than 5.

With `CC[C@H]1Cc2ccc(O)nc2CN(Cc2cc([C@@H](CC(=O)O)c3ccc4c(nnn4C)c3C)cc3ccsc23)C1` [Example 72, (3R)-3-(1,4-Dimethyl-1H-benzotriazol-5-yl)-3-(7-{[(6S)-6-ethyl-2-hydroxy-5,6,7,9-tetrahydro-8H-pyrido[2,3-c]azepin-8-yl]methyl}-1-benzothiophen-5-yl)propanoic acid], the half-inhibitory concentration (IC50) in experiment [1] was 30 to 300 nM. Further, the fold induction at 0.4 µM in experiment [2] is more than 5.

In the case of `CC[C@H]1Cc2ccc(O)nc2CN(Cc2cc([C@H](CC(=O)O)c3ccc4c(nnn4C)c3C)cc3ccsc23)C1` [Example 73, (3S)-3-(1,4-Dimethyl-1H-benzotriazol-5-yl)-3-(7-{[(6S)-6-ethyl-2-hydroxy-5,6,7,9-tetrahydro-8H-pyrido[2,3-c]azepin-8-yl]methyl}-1-benzothiophen-5-yl)propanoic acid], in experiment [1], the concentration for half-maximal inhibition (IC50) is 10 to 30 nM. In addition, in experiment [2], the fold induction at 0.4 µM is more than 5.

In experiment [1], `CC[C@@H]1CN(Cc2cc(C(CC(=O)O)c3ccc4c(nnn4C)c3C)cc3ccsc23)Cc2nc(F)c(O)cc2O1` (stereo partly drawn) [Example 74, 3-(1,4-Dimethyl-1H-benzotriazol-5-yl)-3-(7-{[(2R)-2-ethyl-7-fluoro-8-hydroxy-2,3-dihydropyrido[2,3-f][1,4]oxazepin-4(5H)-yl]methyl}-1-benzothiophen-5-yl)propanoic acid] gave an IC50 of 10 to 30 nM. Also, the fold induction at 0.4 µM in experiment [2] was more than 5.

As to `CC[C@H]1Cc2cccnc2CN(Cc2cc([C@@H](CC(=O)O)c3cnc4c(nnn4C)c3C)cc3ccsc23)C1` [Example 75, (3R)-3-(3,7-Dimethyl-3H-[1,2,3]triazolo[4,5-b]pyridin-6-yl)-3-(7-{[(6S)-6-ethyl-5,6,7,9-tetrahydro-8H-pyrido[2,3-c]azepin-8-yl]methyl}-1-benzothiophen-5-yl)propanoic acid], the 50% inhibitory concentration (IC50) in experiment [1] fell in the range of 10 to 30 nM. For the same compound, the fold induction at 0.4 µM in experiment [2] was more than 5.

Regarding `CC[C@H]1Cc2cccnc2CN(Cc2cc([C@H](CC(=O)O)c3cnc4c(nnn4C)c3C)cc3ccsc23)C1` [Example 76, (3S)-3-(3,7-Dimethyl-3H-[1,2,3]triazolo[4,5-b]pyridin-6-yl)-3-(7-{[(6S)-6-ethyl-5,6,7,9-tetrahydro-8H-pyrido[2,3-c]azepin-8-yl]methyl}-1-benzothiophen-5-yl)propanoic acid], the IC50 in experiment [1] fell in the range of 10 to 30 nM. For the same compound, in experiment [2], the fold induction at 0.4 µM is more than 5.

For `CC[C@@H]1CN(Cc2cc([C@@H](CC(=O)O)c3ccc4c(nnn4C)c3C)cc3ccsc23)Cc2nc(NC)ccc2O1` [Example 77, (3R)-3-(1,4-Dimethyl-1H-benzotriazol-5-yl)-3-(7-{[(2R)-2-ethyl-7-(methylamino)-2,3-dihydropyrido[2,3-f][1,4]oxazepin-4(5H)-yl]methyl}-1-benzothiophen-5-yl)propanoic acid], the IC50 in experiment [1] was not above 10 nM. Besides, the fold induction at 0.4 µM in experiment [2] was more than 5.

With `CC[C@@H]1CN(Cc2cc([C@H](CC(=O)O)c3ccc4c(nnn4C)c3C)cc3ccsc23)Cc2nc(NC)ccc2O1` [Example 78, (3S)-3-(1,4-Dimethyl-1H-benzotriazol-5-yl)-3-(7-{[(2R)-2-ethyl-7-(methylamino)-2,3-dihydropyrido[2,3-f][1,4]oxazepin-4(5H)-yl]methyl}-1-benzothiophen-5-yl)propanoic acid], the IC50 in experiment [1] was not above 10 nM. Also, in experiment [2], the fold induction at 0.4 µM lay within 3 to 5.

The compound `Cc1c([C@@H](CC(=O)O)c2cc(CN3Cc4cnc(O)cc4OC4(CC4)C3)c3sccc3c2)ccc2c1nnn2C` [Example 79, (3S)-3-(1,4-Dimethyl-1H-benzotriazol-5-yl)-3-{7-[(8′-hydroxy-3′H-spiro[cyclopropane-1,2′-pyrido[3,4-f][1,4]oxazepin]-4′ (5′H)-yl)methyl]-1-benzothiophen-5-yl}propanoic acid] had a concentration for half-maximal inhibition (IC50) in experiment [1] of 10 to 30 nM. Besides, the fold induction at 0.4 µM in experiment [2] is 3 to 5.

Regarding `CC[C@H]1Cc2ccc(O)nc2CN(Cc2cc([C@@H](CC(=O)O)c3cnc4c(nnn4C)c3C)cc3ccsc23)C1` [Example 80, (3R)-3-(3,7-Dimethyl-3H-[1,2,3]triazolo[4,5-b]pyridin-6-yl)-3-(7-{[(6S)-6-ethyl-2-hydroxy-5,6,7,9-tetrahydro-8H-pyrido[2,3-c]azepin-8-yl]methyl}-1-benzothiophen-5-yl)propanoic acid], the IC50 in experiment [1] was in the range of 10 to 30 nM. Also, the fold induction at 0.4 µM in experiment [2] is more than 5.

Turning to `CC[C@H]1Cc2ccc(O)nc2CN(Cc2cc([C@H](CC(=O)O)c3cnc4c(nnn4C)c3C)cc3ccsc23)C1` [Example 81, (3S)-3-(3,7-Dimethyl-3H-[1,2,3]triazolo[4,5-b]pyridin-6-yl)-3-(7-{[(6S)-6-ethyl-2-hydroxy-5,6,7,9-tetrahydro-8H-pyrido[2,3-c]azepin-8-yl]methyl}-1-benzothiophen-5-yl)propanoic acid], the 50% inhibitory concentration (IC50) in experiment [1] is 10 to 30 nM. The fold induction at 0.4 µM in experiment [2] was more than 5.

Take `Cc1c([C@@H](CC(=O)O)c2cc(CN3Cc4c(ccnc4O)OC4(CC4)C3)c3sccc3c2)ccc2c1nnn2C` [Example 82, (3S)-3-(1,4-Dimethyl-1H-benzotriazol-5-yl)-3-{7-[(6′-hydroxy-3′H-spiro[cyclopropane-1,2′-pyrido[3,4-f][1,4]oxazepin]-4′(5′H)-yl)methyl]-1-benzothiophen-5-yl}propanoic acid]: the IC50 in experiment [1] lay in the range of 10 to 30 nM. Also, in experiment [2], the fold induction at 0.4 µM was in the range of 3 to 5.

As for `CC[C@H]1Cc2ccc(N)nc2CN(Cc2cc([C@@H](CC(=O)O)c3ccc4c(nnn4C)c3C)cc3ccsc23)C1` [Example 83, (3R)-3-(7-{[(6S)-2-Amino-6-ethyl-5,6,7,9-tetrahydro-8H-pyrido[2,3-c]azepin-8-yl]methyl}-1-benzothiophen-5-yl)-3-(1,4-dimethyl-1H-benzotriazol-5-yl)propanoic acid], in experiment [1], the IC50 was not above 10 nM. In addition, the fold induction at 0.4 µM in experiment [2] was more than 5.

As for `CC[C@H]1Cc2ccc(O)nc2CN(Cc2cc([C@H](CC(=O)O)c3ccc4c(nnn4C)c3Cl)cc3ccsc23)C1` [Example 84, (3S)-3-(4-Chloro-1-methyl-1H-benzotriazol-5-yl)-3-(7-{[(6S)-6-ethyl-2-hydroxy-5,6,7,9-tetrahydro-8H-pyrido[2,3-c]azepin-8-yl]methyl}-1-benzothiophen-5-yl)propanoic acid], in experiment [1], the IC50 is not above 10 nM. In addition, in experiment [2], the fold induction at 0.4 µM is more than 5.

For `CC[C@H]1Cc2ccc(O)nc2CN(Cc2cc([C@H](CC(=O)O)c3cc(Cl)c4c(nnn4C)c3C)cc3ccsc23)C1` [Example 85, (3S)-3-(7-Chloro-1,4-dimethyl-1H-benzotriazol-5-yl)-3-(7-{[(6S)-6-ethyl-2-hydroxy-5,6,7,9-tetrahydro-8H-pyrido[2,3-c]azepin-8-yl]methyl}-1-benzothiophen-5-yl)propanoic acid], the IC50 in experiment [1] is not above 10 nM. The fold induction at 0.4 µM in experiment [2] was more than 5.
